Experiments:
[1] = Compatibility with acrylic urethane Component I (polyol component of two-component clearcoat); type: physicochemical; conditions: for Compatibility in fully formulated coating: after addition of DESMODUR N-3390 and 17 parts solvent mixture
Description: Compound E was again compared against Compound B, this time for compatibility in the following resin formulation which is the polyol component of a typical two-component acrylic urethane clearcoat formulation:
100 parts Acrylic Resin—JONCRYL® CDX-588 (70% Solids) (S.C. Johnson & Son, Inc., Racine, Wis.
5 parts—1 part Dibutyltin Dilaurate (T-12, Air Products, Allentown, Pa.)
45 parts Solvent Mixture (1:1:1 xylenes:MAK:PM Acetate)
1 part Hindered Amine Light Stabilizer (SANDUVOR® S-3055, Clariant Corp., Charlotte, N.C.).

[2] = Solubility in solvent mixture (1:1:1 xylenes:MAK:PM acetate); type: physicochemical
Description: Compound E (the disubstituted amide) was compared against Compound B (the monosubstituted amide) for solubility in a 1:1:1 mixture of xylenes:methyl amyl ketone (MAK):propylene glycol methyl ether acetate (PM acetate), which is a typical coatings solvent mixture.

[3] = QUV accelerated weathering (UVB-313 bulbs) of acrylic urethane clear coat; conditions: Example 10
Description: Compounds D and E were formulated in clear coatings which were applied to panels for accelerated weathering testing as follows. Compound D or E (1% or 2% based on total resin solids) and/or SANDUVOR® S-3055 HALS-type stabilizer (1% based on total resin solids) were predissolved in the solvent mixture (to a 5-10% solids level) and added to the clear acrylic urethane formulation given in Table 3 below. Components I and II were mixed just before use. Cold roll steel panels measuring 4″×12″ and precoated with an electro-coat primer ED505A and a white polyester acrylic melamine base-coat #542AB839, obtained from ACT Laboratories, Inc. (Hillsdale, Mich.) were coated with the clear coating formulations of Table 3. The draw-down technique, using WC-60 WireCators™ (Leneta Co., Hohokus, N.J.), was used to apply the clear coat to the pre-coated panels. The clear coats were allowed to flash for 10 min at ambient temperature and cured for 30 min at 135° C.
Accelerated weathering was carried out on the clear coating formulations using a QUV device equipped with UVB-313 fluorescent bulbs. […] Specular properties such as gloss ([…], ASTMD523) and distinctness of image (“DOI”) (Dorigon Meter D47R-6FT, Hunter Associate Laboratory) and yellowing (“Delta b”) were measured as a function of weathering time. […]

[4] = Bonding/migration in acrylic/melamine clearcoat on RIM substrate, microtome UV depth profile at 340 nm; conditions: 3% on total resin solids, cure 30 min at 135° C.
Experimental: Compound E was investigated to determine whether it forms a chemical bond with the acrylic/melamine resin matrix during curing. For this purpose, it was added to a clearcoat formulation and coated onto a plastic substrate, as described below. Non-bondable UV absorbers readily migrate from clearcoats into plastic substrates upon curing the coating. An absorber which bonds to the matrix should not migrate into the plastic substrate to any significant extent.
The acrylic/melamine resin formulation utilized was as follows: […]
40.6 g JONCRYL® 510 acrylic resin (S.C. Johnson, Inc. Racine, Wis.)
17.5 g CYMEL® 303 crosslinker (Cytec Industries, Inc., West Paterson, N.J.)
0.52 g CYCAT® 4040 catalyst (Cytec Industries, Inc., West Paterson, N.J.)
0.50 g DC 57 flow control agent […]
After cure, the coating and part of the substrate were microtomed into 10 μm thick slices parallel to the coating surface. […] Each microtomed slice was mounted between two microscope slides and its UV absorption spectrum measured using a Perkin-Elmer Lambda 2 spectrophotometer. The absorbance per micrometer sample thickness was determined at the prominent 340 nm absorption band intrinsic to this UVA.
The results of the UV analysis were plotted as a function of depth. […] By measuring the area under the curve, the quantity of Compound E remaining in the coatings and the fraction that migrated into the substrates were estimated. […]

[5] = 1 wt % on total resin solids, 5° C.
[6] = 1 wt % on total resin solids, 23° C.
[7] = 1 wt % on total resin solids, 60° C.

**Q.** With `Cc1ccc(-c2nc(-c3ccc(C)cc3C)nc(-c3ccc(OCC(=O)NCCO)cc3O)n2)c(C)c1` [Compound B, 4-[4,6-Bis(2′4′-dimethylphenyl)-1,3,5-triazin-2-yl]-3-hydroxyphenoxyacetic acid, N-(2-hydroxyethyl)amide, reference compound] as the molecule, how does the Compatibility [1, 5] read?
**A.** not compatible

**Q.** And the Compatibility ([1]; 1 wt % on total resin solids, 5° C., listed as CEX1 (B))?
**A.** No

**Q.** And the Compatibility [1, 6]?
**A.** not compatible

**Q.** And the Compatibility ([1]; 1 wt % on total resin solids, 23° C., listed as CEX1 (B))?
**A.** No

**Q.** What about the Compatibility [1, 7] of the same molecule?
**A.** not compatible

**Q.** And the Compatibility ([1]; 1 wt % on total resin solids, 60° C., listed as CEX1 (B))?
**A.** No

**Q.** And the “Compatibility in fully formulated coating” value [1]?
**A.** did not result in the dissolution

**Q.** What about the Solubility ([2]; 5 wt %, 5° C.) of the same molecule?
**A.** No

**Q.** And the Solubility ([2]; 5 wt %, 23° C.)?
**A.** No

**Q.** What about the Solubility ([2]; 5 wt %, 50° C.) of the same molecule?
**A.** did not dissolve

**Q.** What about the Solubility ([2]; 5 wt %, 50° C., listed as CEX1 (B)) of the same molecule?
**A.** No

**Q.** Which results are given for `CCCCN(CCO)C(=O)COc1ccc(-c2nc(-c3ccc(C)cc3C)nc(-c3ccc(C)cc3C)n2)c(O)c1` [Compound E, 4-[4,6-Bis(2′4′-dimethylphenyl)-1,3,5-triazin-2-yl]-3-hydroxyphenoxyacetic acid, N-(n-butyl)-N-(2-hydroxyethyl)amide]?
**A.** Lifetime of coating compositions (percent gloss retention, percent DOI retention, delta b) compared to the unstabilized composition [3]: extend the lifetime; Compatibility [1, 5]: Yes; Compatibility [1, 6]: Yes; Compatibility [1, 7]: Yes; Compatibility ([1]; 2 wt % on total resin solids, 5° C.): Yes; Compatibility ([1]; 2 wt % on total resin solids, 23° C.): Yes; Compatibility ([1]; 2 wt % on total resin solids, 60° C.): Yes; Compatibility with the resin component ([1]; 5° C., concentration not given): compatible; Compatibility in fully formulated coating [1]: nor did it adversely affect the compatibility; Solubility ([2]; 5 wt %, 5° C.): Yes; Solubility ([2]; 5 wt %, 23° C.): Yes; Solubility ([2]; 5 wt %, 50° C.): Yes; Solubility ([2]; 10 wt %, 5° C.): did not crystallize out of solution; Solubility ([2]; 10 wt %, 5° C., listed as EX1 (E)): Yes; Solubility ([2]; 10 wt %, 23° C.): Yes; Solubility ([2]; 10 wt %, 50° C.): Yes; Dissolution in the solvent mixture ([2]; 10 wt %, temperature not stated): fully dissolved; Fraction of added compound remaining in the coating [4]: about 95%

— patent US6365652B2, “Trisaryl-1,3,5-triazine ultraviolet light absorbers” (Ciba Specialty Chemicals Corporation, priority 1997, dated 2002)
